As a reminder, the IC50 is the concentration at which inhibition is half-maximal.

Data on one compound can be found in paper PMC12668308, “A Novel Antimalarial Agent that Inhibits Protein Synthesis in Plasmodium falciparum” (Angewandte Chemie (International Ed. in English), 2025).

Assay type in all cases: cell-based, Plasmodium falciparum
Test [1] concerns Dd2b2^WT. Briefly: [3H]-hypoxanthine incorporation assay. As to conditions: for IC50: Plasmodium falciparum. On the procedure: (§1) P. falciparum asexual blood stage parasites were cultured in human red blood cells (RBC, Blutspende SRK, Zurich) at a hematocrit of 5% in RPMI 1640 medium. The RPMI 1640 medium (ThermoFisher Scientific #51800−043) was supplemented with the following: 24 mM NaHCO3 (pH 7.3, Sigma-Aldrich #31437−500G-R), 25 mM Hepes (Sigma-Aldrich #H4034−500G), 0.36 mM hypoxanthine (Sigma-Aldrich # H9377−25G), 100 µg mL^-1 neomycin (Sigma-Aldrich #N6386−100G) and 0.5% Albumax II (Thermo Fisher #11021−045). Additionally, 2 mM choline chloride (279 mg/L, Sigma-Aldrich #C7527−100G) was added to the culture to block the induction of sexual commitment as described. ^[31^] The RPMI 1640 medium and components were dissolved in water (Milli-Q purified), stirred for at least 3 h, and then sterile filtered (0.22 μm pore size) with a bottle top filter (Corning # 431118). Parasite cultures were maintained in an atmosphere of 3% O2, 4% CO2, and 93% N2 in air-tight chambers at 37 °C. The [^3H]-hypoxanthine incorporation assay was used to test compound activity in the specific parasite lines as described.^[32^] Briefly, compounds were dissolved in DMSO (10 mM) and diluted in a hypoxanthine-free culture medium. A limiting dilution was performed over a 64-fold range (6-step twofold dilution) in a 96-well plate in duplicates. For every starting concentration, a limiting dilution was performed over a 64-fold range (6-step twofold dilution) in a 96-well plate in two biological duplicates. Parasites were added at 100 µL to each well containing the compound to obtain a final parasitemia of 0.3% and haematocrit of 1.25%. The plates were incubated for 48 h before 0.25 µCi of [^3H]-hypoxanthine was added per well for an additional 24 h. Parasites were harvested on a glass-fiber filter with a Microbeta FilterMate cell harvester (Perkin Elmer, Waltham, USA) and radioactivity was counted using a MicroBeta2 liquid scintillation counter (Perkin Elmer, Waltham, US). […] The fifty percent inhibitory concentration (IC50) was calculated by using nonlinear, four parameter (variable slope) curve fitting as described ^[33^] after importing into GraphPad Prism (version 8.3.0).
(§2) 31 was used for resistance selection studies using the strain Dd2b2 (kindly provided by David Fidock). Resistance selection was done as described in ^[34^]. As summarized in Table S3, an initial inoculum of 2 x 10^9 asexual blood stage parasites (at 2-2.5% parasitemia) were cultured in three independent flasks. […] Cloning via limiting dilution was performed to obtain resistant clones for further characterization as described in section 2.2.5.

For test [2], the system named is Dd2b2^31-R3.1. Briefly: [3H]-hypoxanthine incorporation assay. The procedure: as §1, §2
In test [3] the test system is Dd2b2^31-R2.1. Briefly: [3H]-hypoxanthine incorporation assay. On the procedure: as §1, §2
Test [4] deals with Dd2b2^31-R2.2. Nature of the test: [3H]-hypoxanthine incorporation assay. The procedure: as §1, §2
The subject of test [5] is NF54/iGP1_RE9H^ulg8 stage V gametocytes. Briefly: Dose-response assay on gametocytes, MitoTracker-based readout. An excerpt: Compound 31 was also found to be active against the sexual stage of P. falciparum using the MitoTracker‐based readout. This readout is based on quantifying MitoTracker‐based gametocyte viability as recently described.^[ [7] ^] Briefly, high content imaging of MitoTracker‐ and Hoechst‐stained cells and automated image analysis using the MetaXpress software was used to determine the number of viable gametocytes based on mitochondrial activity and cellular shape.
Sexual commitment was induced in the NF54/iGP1_RE9H^ulg8 parasite line as described in ^[18,^52]. Synchronous ring stage cultures at 2-3% parasitemia (8-16 hpi) were grown for 48 hours in a culture medium lacking D-(+)-glucosamine hydrochloride (GlcN) and containing 1.25 µM Shield-1 to induce GDV1-GFP-DD expression. The induction medium was replaced with standard culture medium containing 50 mM N-acetyl-glucosamine (GlcNAc) for six consecutive days.) to selectively kill asexual parasites.^[53^,54^] Gametocytes were maintained in standard culture medium from day 7 onwards. During the first seven days of gametocyte development, the culture medium was exchanged daily and every second day subsequently. Visual inspection of Hemacolor-stained thin blood smears with a 100x immersion oil objective (total magnification = 1000x) was performed to assess gametocytemia.
Dose response assays were performed in biological triplicates, each in technical duplicate, as described in ^[18, ^55]. Synchronous NF54/iGP1_RE9H^ulg8 gametocyte cultures were resuspended at ~2% gametocytemia in an assay medium at 3% haematocrit. […] MitoTracker-based gametocyte viability was quantified using a modified version of published protocols.^[56^,57^] […] After imaging two technical replicates, the results were averaged and normalized to the plateau of sub-lethal compound concentrations using the “first mean in each data set” function and IC50 values were calculated using nonlinear, four parameter (variable slope) curve fitting in GraphPad Prism (version 8.3.0).

The mark [6] stands for this setting: Plasmodium falciparum, read-out: mean IC50 value ± s.d.

Like-named read-outs stand apart in the source and are kept apart here. Where only a bound is given, the exact number is not on record here.

Turning to `CN1CCN(Cc2ccc(O)c(NC(=O)c3cccc(Oc4cc(C(F)(F)F)ccn4)c3)c2)CC1` [Compound 31, N-(2-hydroxy-5-((4-methylpiperazin-1-yl)methyl)phenyl)-3-((4-(trifluoromethyl)pyridin-2-yl)oxy)benzamide], the “IC50 fold change relative to Dd2b2^WT” value in test [1] (Dd2b2^WT) is reported as 1.0; in test [2] (Dd2b2^31-R3.1) it was 14.5; in test [3] (Dd2b2^31-R2.1) it was 16.9; in test [4] (Dd2b2^31-R2.2), 11.6. Further, the IC50 in test [1] (72 h, read-out: Parent (Dd2b2^WT) IC50) is 4.5 ± 0.7 nM; in test [1] (read-out: mean IC50 value ± s.d.), 13.3 ± 1.7 nM; in test [2] (setting [6]), 192 ± 35.3 nM; in test [3] (setting [6]), 225 ± 35.3 nM; in test [4] (setting [6]) it was 154 ± 26.3 nM; in test [5] (Plasmodium falciparum, NF54, 72 h, read-out: IC50 mature (stage V) gametocytes, 72 h exposure, MitoTracker readout, N = 3) it was 354 nM. Moreover, the IC50 in test [5] (read-out: IC50 mature (stage V) gametocytes, 72 h exposure, MitoTracker readout, N = 3) is < 500 nM. In addition, the “fold reduction in activity against the sexual stages compared to the asexual stage” value in test [5] (stage V gametocytes vs NF54 asexual) stood at 91 fold.
